According to patent publication US11396664B2, “Replicative transposon system” (Max-Delbrück-Centrum für Molekulare Medizin in der …, priority 2016, dated 2022):

Tested on: Helraiser transposase, wild type (WT), SEQ ID NO: 1, consensus Helibat1 Helitron transposase from the bat Myotis lucifugus
Experiment: Colorimetric ATPase assay (ATP hydrolysis, malachite green)
Type: biochemical
Conditions: purified transposase; 50 mM HEPES pH 7.5, 100 mM NaCl, 1 mM DTT, 2 mM MgCl2, 37° C; ATP 0.0078 to 1 mM
Method: Protein Expression and Purification
Point mutations were made using the QuikChange site-directed mutagenesis method (Agilent). Baculovirus production and protein expression were performed by the Protein Expression Laboratory at the National Cancer Institute as follows:
Cell pellets were resuspended in Nickel affinity column binding buffer (20 mM NaH2PO4 pH 7.4, 500 mM NaCl, 50 mM imidazole, 1 mM TCEP). All subsequent steps were performed at 4° C. Lysis was done by incubating the cells on ice for 30 minutes, then sonication with a Misonix Sonicator 3000 (5×20-sec pulses with 3 minute pause at 82 Watts). […]
ATP hydrolysis was analyzed by measuring the formation of free phosphate (Pi) as a function of time using procedures adapted from Baykov et al. (Baykov A A, Evtushenko O A, Avaeva S M. A malachite green procedure for orthophosphate determination and its use in alkaline phosphatase-based enzyme immunoassay. Anal Biochem 171, 266-270 (1988)). […] An aliquot (150 μl) of a 1 mM malachite green stock solution was added to each well, and the absorbance at 650 nm was measured using a Molecular Devices Spectramax M5 microplate reader. The amount of phosphate released was calculated by comparison to a standard curve generated using KH2PO4. […]

Compound: Nc1ncnc2c1ncn2[C@@H]1O[C@H](COP(=O)(O)OP(=O)(O)OP(=O)(O)O)[C@@H](O)[C@H]1O [ATP]
- Km: 46 µM
- kcat (ATP hydrolysis): 6.8 ± 0.11 s⁻¹
